These results are taken from ChEMBL document CHEMBL5465560, “Selectivity Literature for EUbOPEN Chemogenomic Library” (2024).

Structures are written as SMILES.

The target of assay [1] is Receptor-interacting serine/threonine-protein kinase 2 (Homo sapiens, UniProt O43353). The experiment in a line: Selectivity interaction (KinomeScan (DiscoverX)) EUB0000666a RIPK2. The settings on record: at 10 µM.
Assay [2] has as its target Receptor-type tyrosine-protein kinase FLT3 (Homo sapiens) (UniProt P36888). The experiment in a line: Selectivity interaction (SelectScreen Kinase Profiling (Thermo Fisher Scientific)) EUB0001558a FLT3. The settings on record: at 1 µM.
Assay [3] has as its target T1, Serine/threonine-protein kinase 17B (Homo sapiens) (UniProt O94768).
T1 sequence (whole entry): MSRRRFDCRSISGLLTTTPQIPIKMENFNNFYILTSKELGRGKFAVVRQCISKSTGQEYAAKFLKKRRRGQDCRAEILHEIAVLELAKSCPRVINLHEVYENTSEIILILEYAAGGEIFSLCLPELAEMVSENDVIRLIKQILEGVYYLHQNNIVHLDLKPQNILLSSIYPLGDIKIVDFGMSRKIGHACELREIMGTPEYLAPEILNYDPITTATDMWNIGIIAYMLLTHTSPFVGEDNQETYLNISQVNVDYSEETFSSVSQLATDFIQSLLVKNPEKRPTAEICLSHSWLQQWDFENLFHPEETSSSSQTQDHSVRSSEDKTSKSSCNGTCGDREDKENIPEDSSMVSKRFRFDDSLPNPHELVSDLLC
The experiment in a line: Selectivity interaction (KinomeScan (DiscoverX)) EUB0000229b STK17B. The conditions noted are these: at 10 µM.

Assay [4] deals with T2, Receptor-interacting serine/threonine-protein kinase 1 (Homo sapiens) (UniProt Q13546).
T2 sequence (whole entry): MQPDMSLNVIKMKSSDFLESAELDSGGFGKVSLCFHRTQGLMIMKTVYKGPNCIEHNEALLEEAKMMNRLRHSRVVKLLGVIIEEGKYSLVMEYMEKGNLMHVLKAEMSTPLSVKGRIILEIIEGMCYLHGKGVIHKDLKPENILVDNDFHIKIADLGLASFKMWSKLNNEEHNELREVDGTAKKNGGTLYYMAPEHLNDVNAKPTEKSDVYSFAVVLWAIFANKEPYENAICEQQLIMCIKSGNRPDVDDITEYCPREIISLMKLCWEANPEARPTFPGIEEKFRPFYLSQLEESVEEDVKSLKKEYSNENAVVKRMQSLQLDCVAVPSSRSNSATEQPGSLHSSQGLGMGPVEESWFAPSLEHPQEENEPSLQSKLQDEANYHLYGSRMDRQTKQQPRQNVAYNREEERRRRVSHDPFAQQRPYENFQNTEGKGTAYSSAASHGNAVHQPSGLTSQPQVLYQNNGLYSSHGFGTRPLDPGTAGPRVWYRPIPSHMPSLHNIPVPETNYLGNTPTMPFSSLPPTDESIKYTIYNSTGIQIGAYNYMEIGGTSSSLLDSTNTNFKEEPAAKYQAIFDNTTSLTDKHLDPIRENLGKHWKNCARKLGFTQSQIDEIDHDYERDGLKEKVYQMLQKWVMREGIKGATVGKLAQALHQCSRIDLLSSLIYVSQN
The experiment in a line: Selectivity interaction (KinomeScan (DiscoverX)) EUB0001079a RIPK1. The conditions noted are these: at 1 µM.

Assay [5] has as its target T3, Activin receptor type-1B (Homo sapiens) (UniProt P36896).
T3 sequence (whole entry): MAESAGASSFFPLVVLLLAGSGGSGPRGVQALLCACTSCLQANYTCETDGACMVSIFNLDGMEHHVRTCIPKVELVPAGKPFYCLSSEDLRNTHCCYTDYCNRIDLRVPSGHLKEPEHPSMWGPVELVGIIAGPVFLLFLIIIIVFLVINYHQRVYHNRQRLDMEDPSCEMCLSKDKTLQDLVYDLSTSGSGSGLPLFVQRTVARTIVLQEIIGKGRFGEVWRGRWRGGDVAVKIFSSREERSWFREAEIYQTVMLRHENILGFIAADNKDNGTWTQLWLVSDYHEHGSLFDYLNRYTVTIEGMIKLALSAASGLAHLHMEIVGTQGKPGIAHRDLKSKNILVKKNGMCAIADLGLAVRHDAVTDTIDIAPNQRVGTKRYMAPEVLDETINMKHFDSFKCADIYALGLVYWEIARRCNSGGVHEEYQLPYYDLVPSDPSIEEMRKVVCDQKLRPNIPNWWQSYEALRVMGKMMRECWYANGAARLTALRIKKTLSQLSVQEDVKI
The experiment in a line: Selectivity interaction (KinomeScan (DiscoverX)) EUB0001079a ACVR1B. The conditions noted are these: at 1 µM.

Assay [6] concerns the target T4, Serine/threonine-protein kinase MAK (Homo sapiens) (UniProt P20794).
T4 sequence (whole entry): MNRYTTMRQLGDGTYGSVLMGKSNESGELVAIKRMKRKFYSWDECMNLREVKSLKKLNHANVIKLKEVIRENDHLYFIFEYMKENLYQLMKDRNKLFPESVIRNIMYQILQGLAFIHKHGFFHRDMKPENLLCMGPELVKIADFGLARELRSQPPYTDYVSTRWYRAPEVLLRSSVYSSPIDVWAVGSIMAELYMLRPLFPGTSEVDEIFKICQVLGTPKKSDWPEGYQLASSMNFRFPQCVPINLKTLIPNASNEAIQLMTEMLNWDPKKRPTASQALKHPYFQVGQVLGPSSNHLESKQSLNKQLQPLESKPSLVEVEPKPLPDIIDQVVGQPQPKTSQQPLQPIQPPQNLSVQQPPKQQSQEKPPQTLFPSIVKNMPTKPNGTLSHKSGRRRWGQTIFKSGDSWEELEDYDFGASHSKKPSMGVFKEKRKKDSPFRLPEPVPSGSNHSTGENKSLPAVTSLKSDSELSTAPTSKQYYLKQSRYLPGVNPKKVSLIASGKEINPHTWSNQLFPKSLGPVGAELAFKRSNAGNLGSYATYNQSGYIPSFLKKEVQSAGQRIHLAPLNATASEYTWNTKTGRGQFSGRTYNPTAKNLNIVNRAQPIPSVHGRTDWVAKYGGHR
As to the kind of experiment: Selectivity interaction (KinomeScan (DiscoverX)) EUB0001079a MAK. The settings on record: at 1 µM.

The target of assay [7] is T5, Rhodopsin kinase GRK7 (Homo sapiens) (UniProt Q8WTQ7).
T5 sequence (whole entry): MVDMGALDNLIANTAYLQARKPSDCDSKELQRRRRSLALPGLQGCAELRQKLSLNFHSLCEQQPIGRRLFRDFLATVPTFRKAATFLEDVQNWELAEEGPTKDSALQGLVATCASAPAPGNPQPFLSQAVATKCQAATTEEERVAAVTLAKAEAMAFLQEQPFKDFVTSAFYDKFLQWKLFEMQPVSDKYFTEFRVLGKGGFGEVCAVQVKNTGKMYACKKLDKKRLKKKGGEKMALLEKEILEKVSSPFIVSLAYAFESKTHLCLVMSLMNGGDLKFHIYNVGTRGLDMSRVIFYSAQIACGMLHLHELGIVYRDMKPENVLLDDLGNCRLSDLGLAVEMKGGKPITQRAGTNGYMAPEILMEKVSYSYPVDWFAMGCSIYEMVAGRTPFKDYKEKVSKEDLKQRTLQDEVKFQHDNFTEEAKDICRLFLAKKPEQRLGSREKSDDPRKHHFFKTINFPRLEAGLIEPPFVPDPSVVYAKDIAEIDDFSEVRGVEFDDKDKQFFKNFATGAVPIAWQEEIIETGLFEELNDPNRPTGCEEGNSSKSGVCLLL
The experiment in a line: Selectivity interaction (KinomeScan (DiscoverX)) EUB0001049a GRK7. The conditions noted are these: at 1 µM.

Chain of Receptor-interacting serine/threonine-protein kinase 2 (O43353 whole entry): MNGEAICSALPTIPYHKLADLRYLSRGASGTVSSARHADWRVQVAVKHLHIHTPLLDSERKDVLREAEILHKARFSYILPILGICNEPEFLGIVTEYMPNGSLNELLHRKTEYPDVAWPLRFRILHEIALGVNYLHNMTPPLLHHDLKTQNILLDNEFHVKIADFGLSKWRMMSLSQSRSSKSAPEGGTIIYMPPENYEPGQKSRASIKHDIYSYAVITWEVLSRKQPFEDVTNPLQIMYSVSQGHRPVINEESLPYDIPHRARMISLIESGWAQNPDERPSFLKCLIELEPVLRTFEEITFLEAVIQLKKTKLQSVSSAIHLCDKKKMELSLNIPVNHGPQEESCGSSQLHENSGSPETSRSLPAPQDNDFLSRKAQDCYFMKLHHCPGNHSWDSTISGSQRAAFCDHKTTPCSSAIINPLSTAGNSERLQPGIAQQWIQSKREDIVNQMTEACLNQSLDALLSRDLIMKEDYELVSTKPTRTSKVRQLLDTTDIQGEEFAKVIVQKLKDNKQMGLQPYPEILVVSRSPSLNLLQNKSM
Chain of Receptor-type tyrosine-protein kinase FLT3 (Homo sapiens) (P36888 whole entry): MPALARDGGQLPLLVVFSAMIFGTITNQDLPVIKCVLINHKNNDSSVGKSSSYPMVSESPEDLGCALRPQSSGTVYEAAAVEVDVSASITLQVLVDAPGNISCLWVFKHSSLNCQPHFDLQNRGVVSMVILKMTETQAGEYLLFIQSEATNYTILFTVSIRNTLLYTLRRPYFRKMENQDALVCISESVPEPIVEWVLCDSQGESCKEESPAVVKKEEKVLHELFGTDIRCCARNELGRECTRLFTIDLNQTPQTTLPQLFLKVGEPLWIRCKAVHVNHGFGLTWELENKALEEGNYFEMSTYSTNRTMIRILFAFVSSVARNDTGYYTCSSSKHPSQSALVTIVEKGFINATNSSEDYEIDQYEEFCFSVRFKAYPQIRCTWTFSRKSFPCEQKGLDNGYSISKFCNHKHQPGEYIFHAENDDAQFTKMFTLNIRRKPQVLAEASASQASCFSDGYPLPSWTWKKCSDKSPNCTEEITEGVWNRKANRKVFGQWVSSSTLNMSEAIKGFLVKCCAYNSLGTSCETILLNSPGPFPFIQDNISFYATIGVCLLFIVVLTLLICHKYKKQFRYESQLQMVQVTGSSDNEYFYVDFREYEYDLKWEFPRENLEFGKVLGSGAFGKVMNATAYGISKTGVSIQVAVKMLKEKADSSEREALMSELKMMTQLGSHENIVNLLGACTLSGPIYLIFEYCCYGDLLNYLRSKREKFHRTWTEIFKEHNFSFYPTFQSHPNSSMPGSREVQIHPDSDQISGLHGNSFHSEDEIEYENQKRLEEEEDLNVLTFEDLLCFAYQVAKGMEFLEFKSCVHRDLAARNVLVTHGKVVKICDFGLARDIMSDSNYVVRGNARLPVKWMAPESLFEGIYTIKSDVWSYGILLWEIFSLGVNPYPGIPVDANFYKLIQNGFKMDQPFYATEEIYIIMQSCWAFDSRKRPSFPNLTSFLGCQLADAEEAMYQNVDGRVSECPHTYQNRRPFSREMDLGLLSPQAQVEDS

With `O=C(NOC[C@H](O)CO)c1ccc(F)c(F)c1Nc1ccc(I)cc1F`, in assay [1], the % of control was determined as 66%.
In assay [2], `CC(C)(O)[C@H](F)CN1Cc2cc(NC(=O)c3cnn4cccnc34)c(N3CCOCC3)cc2C1=O` registered a % of inhibition of 90.8%.
In assay [3], `COc1cc(N(C)c2ccnc3ccc(C(F)(F)F)cc23)cc(OC)c1OC` showed a % binding of 100%.
On to `Nc1cnc(N2CCc3cc(S(=O)(=O)Nc4c(F)cc(Cl)cc4F)cc(N4CCCC4=O)c32)nc1` [TP-020n], for which the % of control in assay [4] stood at 92%; in assay [5], 96%; in assay [6], 96%.
`COc1cc(Nc2nc(C)cc(-c3cnn4nc(OC)ccc34)n2)cc(C(F)(F)F)c1` registered a % of control in assay [7] of 83%.
